The values that follow come from ChEMBL document CHEMBL5550101, “Inhibition of cancer cells by Quinoline-Based compounds: A review with mechanistic insights” (Bioorg Med Chem, 2024).

By IC50 is commonly meant the midpoint of a concentration-inhibition curve. As a reminder, the LC50 is the concentration that kills 50% of the test population.

Experiment [1] deals with Hepatocyte growth factor receptor (Homo sapiens, UniProt P08581). The experiment can be described thus: Inhibition of c-Met (unknown origin) by mobility shift assay.
Hepatocyte growth factor receptor, sequence (P08581 whole entry): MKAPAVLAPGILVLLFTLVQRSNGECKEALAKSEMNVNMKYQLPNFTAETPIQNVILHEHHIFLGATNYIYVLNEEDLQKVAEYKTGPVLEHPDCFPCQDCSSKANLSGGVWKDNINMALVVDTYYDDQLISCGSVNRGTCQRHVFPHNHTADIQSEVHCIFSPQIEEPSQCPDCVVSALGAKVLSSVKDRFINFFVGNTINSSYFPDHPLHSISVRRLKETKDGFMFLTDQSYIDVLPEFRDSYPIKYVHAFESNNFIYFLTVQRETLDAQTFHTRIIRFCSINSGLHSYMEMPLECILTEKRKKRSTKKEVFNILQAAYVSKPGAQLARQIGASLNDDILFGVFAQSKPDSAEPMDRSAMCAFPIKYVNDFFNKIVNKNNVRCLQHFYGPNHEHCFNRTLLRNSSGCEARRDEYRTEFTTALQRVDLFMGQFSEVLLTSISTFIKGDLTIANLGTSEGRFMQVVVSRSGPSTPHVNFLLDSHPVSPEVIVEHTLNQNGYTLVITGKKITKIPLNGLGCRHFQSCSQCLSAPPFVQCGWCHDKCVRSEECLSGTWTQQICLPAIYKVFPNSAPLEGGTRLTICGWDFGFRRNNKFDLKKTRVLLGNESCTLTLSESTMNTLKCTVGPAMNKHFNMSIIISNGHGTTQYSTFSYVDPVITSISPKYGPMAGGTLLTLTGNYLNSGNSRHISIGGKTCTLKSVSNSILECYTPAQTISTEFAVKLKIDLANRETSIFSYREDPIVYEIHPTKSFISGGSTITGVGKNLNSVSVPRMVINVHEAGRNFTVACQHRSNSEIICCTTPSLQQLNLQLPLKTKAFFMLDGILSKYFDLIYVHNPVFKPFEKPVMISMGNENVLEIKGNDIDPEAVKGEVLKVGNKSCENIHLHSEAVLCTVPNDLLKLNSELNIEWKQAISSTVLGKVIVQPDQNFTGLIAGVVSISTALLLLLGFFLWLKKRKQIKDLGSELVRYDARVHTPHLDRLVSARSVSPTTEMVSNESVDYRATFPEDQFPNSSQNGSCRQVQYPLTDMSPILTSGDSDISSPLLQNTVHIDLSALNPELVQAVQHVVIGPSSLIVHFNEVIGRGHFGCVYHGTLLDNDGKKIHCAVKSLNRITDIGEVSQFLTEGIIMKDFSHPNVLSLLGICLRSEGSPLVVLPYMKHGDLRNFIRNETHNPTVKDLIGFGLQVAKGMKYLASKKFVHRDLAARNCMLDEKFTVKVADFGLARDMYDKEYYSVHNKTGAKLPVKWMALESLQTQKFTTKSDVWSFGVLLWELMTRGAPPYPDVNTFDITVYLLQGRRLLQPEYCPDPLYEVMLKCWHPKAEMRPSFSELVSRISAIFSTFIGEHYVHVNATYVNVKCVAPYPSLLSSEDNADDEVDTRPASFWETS
Experiment [2] concerns the target Platelet-derived growth factor receptor beta (Homo sapiens, UniProt P09619). The experiment can be described thus: Inhibition of PDGFRbeta (unknown origin).
A further experiment deals with SR. The experiment can be described thus: Cytotoxicity against human SR cells assessed as cell growth inhibition by measuring lethal concentration by SRB assay. The settings on record: read-out: LC50 (the source's name). In kind it is functional. In general terms: Sulforhodamine B stains cellular protein and so reports cell mass.
For a further experiment, the system named is M14. Description: Cytotoxicity against human M14 cells assessed as cell growth inhibition by measuring lethal concentration by SRB assay. In kind it is functional.
In a further experiment the test system is OVCAR-3. Description: Cytotoxicity against human OVCAR-3 cells assessed as cell growth inhibition by measuring lethal concentration by SRB assay. Type of experiment: functional.
Experiment [3] concerns MCF7. The experiment can be described thus: Cytotoxicity against human MCF7 cells assessed as cell growth inhibition by measuring lethal concentration by SRB assay. Type of experiment: functional.
For a further experiment, the system named is PC-3. Description: Cytotoxicity against human PC-3 cells assessed as cell growth inhibition by measuring lethal concentration by SRB assay. Type of experiment: functional. The settings on record: read-out: LC50 (the source's name).
The subject of another experiment is A498. Description: Cytotoxicity against human A498 cells assessed as cell growth inhibition by measuring lethal concentration by SRB assay. In kind it is functional.
Experiment [4] relates to A549. The experiment can be described thus: Cytotoxicity against human A549 cells assessed as cell growth inhibition by measuring lethal concentration by SRB assay. Type of experiment: functional. Conditions: read-out: LC50 (the source's name).
For experiment [5], the system named is MCF7. Description: Cytotoxicity against human MCF7 cells assessed as reduction in cell growth incubated for 72 hrs by SRB assay. In kind it is functional, cell-based. The settings on record: MCF7, 72 h.
For experiment [6], the system named is MCF7. Description: Antiproliferative activity against human MCF7 cells assessed as reduction in cell growth incubated for 48 hrs by SRB assay. In kind it is functional, cell-based. Conditions: MCF7, 48 h.
For experiment [7], the target named is Epidermal growth factor receptor (Homo sapiens, UniProt P00533). The experiment can be described thus: Inhibition of EGFR (unknown origin).
Epidermal growth factor receptor, sequence (P00533 whole entry): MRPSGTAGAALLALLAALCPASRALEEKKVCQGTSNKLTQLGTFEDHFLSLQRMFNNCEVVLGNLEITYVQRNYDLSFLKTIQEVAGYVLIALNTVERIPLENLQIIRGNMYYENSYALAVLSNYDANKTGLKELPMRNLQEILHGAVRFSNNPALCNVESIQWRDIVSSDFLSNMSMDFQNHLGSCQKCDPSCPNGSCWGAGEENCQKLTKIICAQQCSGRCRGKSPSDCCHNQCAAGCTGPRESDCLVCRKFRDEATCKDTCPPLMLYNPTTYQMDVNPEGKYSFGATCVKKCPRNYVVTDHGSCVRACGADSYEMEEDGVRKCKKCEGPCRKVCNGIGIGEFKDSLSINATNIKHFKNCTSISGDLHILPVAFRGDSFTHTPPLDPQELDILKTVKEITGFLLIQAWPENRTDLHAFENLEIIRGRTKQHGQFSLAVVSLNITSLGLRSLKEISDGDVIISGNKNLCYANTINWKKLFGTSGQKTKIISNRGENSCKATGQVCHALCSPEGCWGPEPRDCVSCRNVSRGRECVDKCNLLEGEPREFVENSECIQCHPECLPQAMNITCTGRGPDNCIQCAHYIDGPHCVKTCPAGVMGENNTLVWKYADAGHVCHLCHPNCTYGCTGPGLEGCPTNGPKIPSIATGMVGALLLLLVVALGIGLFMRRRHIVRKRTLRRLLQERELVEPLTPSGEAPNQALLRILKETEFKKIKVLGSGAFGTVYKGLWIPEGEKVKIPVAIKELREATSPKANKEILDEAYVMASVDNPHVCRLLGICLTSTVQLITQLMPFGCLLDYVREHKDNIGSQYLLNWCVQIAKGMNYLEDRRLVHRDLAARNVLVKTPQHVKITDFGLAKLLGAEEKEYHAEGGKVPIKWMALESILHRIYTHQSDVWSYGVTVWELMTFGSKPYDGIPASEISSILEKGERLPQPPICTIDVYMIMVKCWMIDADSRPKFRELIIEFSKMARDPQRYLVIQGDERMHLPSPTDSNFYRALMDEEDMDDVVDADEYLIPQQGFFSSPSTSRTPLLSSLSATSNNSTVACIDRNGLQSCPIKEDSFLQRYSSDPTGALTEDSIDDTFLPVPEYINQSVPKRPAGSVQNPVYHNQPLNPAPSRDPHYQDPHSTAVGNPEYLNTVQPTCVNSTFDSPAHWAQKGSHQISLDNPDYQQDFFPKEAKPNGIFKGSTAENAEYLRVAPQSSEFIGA
Experiment [8] relates to MCF7. The experiment can be described thus: Cytotoxicity against human MCF7 cells assessed as reduction in cell growth measured for 48 hrs by SRB assay. Type of experiment: functional, cell-based. The settings on record: MCF7, 48 h.
Another experiment deals with HCT-116. The experiment can be described thus: Cytotoxicity against human HCT-116 cells assessed as cell growth inhibition by measuring lethal concentration by SRB assay. In kind it is functional.
Experiment [9] has as its system A549. The experiment can be described thus: Antiproliferative activity against human A549 cells assessed as reduction in cell growth incubated for 48 hrs by MTT assay. Type of experiment: functional, cell-based. Conditions: A549, 48 h. For orientation: Tetrazolium assays rely on reduction of a dye to a coloured formazan, in cell work by metabolically active cells.

Platelet-derived growth factor receptor beta, sequence (P09619 whole entry): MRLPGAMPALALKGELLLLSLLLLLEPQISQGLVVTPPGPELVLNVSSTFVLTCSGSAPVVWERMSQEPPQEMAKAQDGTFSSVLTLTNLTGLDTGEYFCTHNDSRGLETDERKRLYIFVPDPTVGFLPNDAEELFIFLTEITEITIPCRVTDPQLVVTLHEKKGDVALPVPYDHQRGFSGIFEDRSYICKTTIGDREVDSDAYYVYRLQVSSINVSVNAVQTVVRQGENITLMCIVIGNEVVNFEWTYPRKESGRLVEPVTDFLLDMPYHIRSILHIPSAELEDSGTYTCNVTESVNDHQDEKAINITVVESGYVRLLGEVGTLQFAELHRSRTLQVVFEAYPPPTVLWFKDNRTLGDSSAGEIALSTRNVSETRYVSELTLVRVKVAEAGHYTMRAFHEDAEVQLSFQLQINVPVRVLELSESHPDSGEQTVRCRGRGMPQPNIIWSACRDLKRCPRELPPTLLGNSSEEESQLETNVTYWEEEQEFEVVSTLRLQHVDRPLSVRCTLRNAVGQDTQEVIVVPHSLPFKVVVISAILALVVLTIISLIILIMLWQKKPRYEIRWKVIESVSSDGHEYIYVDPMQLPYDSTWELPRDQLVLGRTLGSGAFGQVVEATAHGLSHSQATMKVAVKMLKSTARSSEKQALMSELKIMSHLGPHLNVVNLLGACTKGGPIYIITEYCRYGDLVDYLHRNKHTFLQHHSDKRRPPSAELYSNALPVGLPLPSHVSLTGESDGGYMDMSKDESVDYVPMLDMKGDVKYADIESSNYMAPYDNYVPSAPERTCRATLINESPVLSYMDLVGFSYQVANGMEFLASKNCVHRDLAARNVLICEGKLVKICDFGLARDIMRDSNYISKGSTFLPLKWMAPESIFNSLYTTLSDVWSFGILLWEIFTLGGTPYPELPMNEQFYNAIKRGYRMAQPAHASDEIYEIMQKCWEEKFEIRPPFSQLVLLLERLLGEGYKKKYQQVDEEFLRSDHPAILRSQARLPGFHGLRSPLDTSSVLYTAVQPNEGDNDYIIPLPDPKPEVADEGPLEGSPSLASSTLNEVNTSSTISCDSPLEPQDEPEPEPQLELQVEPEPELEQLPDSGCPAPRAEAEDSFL

Turning to `COc1ccc2c(Oc3ccc(CC(=O)Nc4cn(C)nc4C)c(OC)c3)ccnc2c1`, the IC50 in experiment [1] is 0.004 µM.
`COc1ccc(-c2cc3cc(OC)ccc3nc2Nc2ccc(NC(=O)CN3CCN(C)CC3)cc2)cc1` gave an IC50 in [2] of 5 µM.
`COc1ccc(-c2cc3ccc(OC)cc3nc2Nc2ccc(NC(=O)CN3CCN(C)CC3)cc2)cc1`: in [2], the IC50 amounted to 5 µM.
As to `CCN(C(=O)c1cc(C(C)C)c(O)cc1O)c1cnc2ccccc2c1`, in experiment [1], the 50% inhibitory concentration (IC50) was 0.17 µM.
In the case of `CCCCCCOc1ccc(/C=N/Nc2cc(C)nc3ccc(Cl)cc23)cc1`, the CC50 with SR was found to be 8.11 µM; in the experiment on PC-3, 5.83 µM; in the experiment with A549 [4], 7.22 µM. In addition, the LC50 in the experiment on M14 came to 6.26 µM; with OVCAR-3, 6.83 µM; with MCF7 [3], 6.97 µM; with A498, 6.55 µM.
With `N#Cc1c(-c2ccc3ncc(C(N)=O)c(Nc4cccc(Br)c4)c3c2)csc1N`, the IC50 in the experiment with MCF7 [5] was 50.6 µM.
In experiment [2], `CCCOc1ccc(/C=N/Nc2ccnc3ccc(Br)cc23)cc1` registered an IC50 of 1.83 µM.
As to `Cc1ccc(Nc2c(C(N)=O)cnc3ccc(C(=O)/C=C/c4ccc(-c5ccc(Cl)cc5)o4)cc23)cc1`, the IC50 in the experiment on MCF7 [5] is 3.35 µM.
For the compound `COc1ccc2nc(Cl)cc(C3CC(c4ccc(C)cc4)=NN3c3nc(C)c(NNc4ccccc4)s3)c2c1` (stereo not drawn), the IC50 with MCF7 [6] was determined as 0.41 µM.
Take `COc1ccc2c(c1)CCc1c-2[nH]c(=O)c(C#N)c1-c1ccc(OC)c(OC)c1`: the values for the IC50 (in experiment [7]; in the experiment on MCF7 [8]) were 0.13 µM and 13.7 µM, respectively.
For the compound `CCOC(=O)c1sc(N2N=C(c3ccc(C)cc3)CC2c2cc(Cl)nc3ccc(OC)cc23)nc1C` (stereo not drawn), the IC50 with MCF7 [6] turned out to be 0.32 µM.
In the case of `CC(=O)c1ccc2ncc(C(N)=O)c(Nc3ccc(OCc4ccccc4)cc3)c2c1`, the IC50 in the experiment on MCF7 [5] is 10.8 µM.
Regarding `CCCCCOc1ccc(/C=N/Nc2cc(C)nc3ccc(Br)cc23)cc1`, the CC50 in the experiment with SR turned out to be 21.3 µM; in the experiment with PC-3, 5.88 µM; in the experiment on A549 [4] it was 7.15 µM. In addition, the LC50 was 6.64 µM in the experiment on M14; 5.92 µM in the experiment on OVCAR-3; 7.93 µM in the experiment with MCF7 [3]; 6.35 µM in the experiment on HCT-116; 6.02 µM in the experiment on A498.
For `COc1ccc2c(c1)CCc1c-2nc(N)c(C#N)c1-c1ccc(OC)c(OC)c1`, the values for the IC50 (in experiment [7]; in the experiment with MCF7 [8]) were 0.13 µM and 14.5 µM, respectively.
As for `CN1c2ccc(F)cc2SC1C(=O)Nc1cccc2c1N(Cc1ccc(OC3CCNCC3)cc1)CCC2` (stereo not drawn), in experiment [2], the IC50 was determined as 1.13 µM.
Take `COc1ccc2nc(Cl)cc(C3CC(c4ccc(C)cc4)=NN3c3nc(-c4ccc(Cl)cc4)cs3)c2c1` (stereo not drawn): the IC50 with MCF7 [6] was 1.18 µM.
Take `COc1ccc2nc(Cl)cc(C3CC(c4ccc(C)cc4)=NN3c3nc(C)c(C(=O)Nc4ccccc4)s3)c2c1` (stereo not drawn): in the experiment with MCF7 [6], the IC50 is 0.36 µM.
Regarding `O=C(Cc1ccc([N+](=O)[O-])cc1)Nc1ccc2c(c1)CCCN2C(=O)c1ccc(Cl)cc1`, in the experiment on A549 [9], the IC50 came to 0.06 µM.
Regarding `O=C(Cc1ccc(Br)cc1)Nc1ccc2c(c1)CCCN2C(=O)c1ccc(Cl)cc1`, the IC50 in the experiment on A549 [9] is 0.65 µM.
`CCOc1ccc(/C=N/Nc2ccnc3ccc(Br)cc23)cc1` displayed an IC50 in experiment [2] of 1.86 µM.
With `O=C(Cc1ccccc1)Nc1ccc2c(c1)CCCN2C(=O)c1ccc(Cl)cc1`, the IC50 in the experiment with A549 [9] was found to be 0.97 µM.
Consider `CCCCOc1ccc(/C=N/Nc2ccnc3ccc(Br)cc23)cc1`, for which the IC50 in experiment [2] stood at 2.2 µM.
`O=C(Nc1ccc2c(c1)CCCN2C(=O)c1ccc(Cl)cc1)c1cc(C(F)(F)F)cc(C(F)(F)F)c1`: in the experiment on A549 [9], the IC50 was 3.2 µM.
Regarding `COc1ccc2nc(O)c(C3CC(c4ccc(C)cc4)=NN3C(C)=O)cc2c1` (stereo not drawn), the IC50 in the experiment with MCF7 [6] worked out at 0.21 µM.
Turning to `COc1ccc2c(c1)CCc1c-2[nH]c(=O)c(C#N)c1-c1ccc(OC)cc1OC`, the IC50 in [7] was 0.13 µM; in the experiment on MCF7 [8], 7.21 µM.
As for `COc1ccc2c(c1)CCc1c-2nc(N)c(C#N)c1-c1ccc(OC)cc1OC`, the figures for the IC50 (in experiment [7]; in the experiment with MCF7 [8]) were 0.13 µM and 17.6 µM, respectively.
With `CCOC(=O)C(=O)Nc1ccc2c(c1)CCCN2C(=O)c1ccc(Cl)cc1`, the IC50 in the experiment on A549 [9] was determined as 0.15 µM.
For the compound `CCCCCCOc1ccc(/C=N/Nc2cc(C)nc3ccc(Br)cc23)cc1`, the CC50 in the experiment with SR is > 100 µM; in the experiment with PC-3, 5.84 µM; in the experiment with A549 [4] it was 6.61 µM. Besides, the LC50 is 6.67 µM with M14; 6.85 µM in the experiment with OVCAR-3; 6.84 µM with MCF7 [3]; 4.67 µM with HCT-116; 6.03 µM with A498.
On to `CCCCCOc1ccc(/C=N/Nc2cc(C)nc3ccc(Cl)cc23)cc1`, for which the CC50 came to 4.2 µM in the experiment with SR, 5.98 µM in the experiment on PC-3 and 6.52 µM in the experiment with A549 [4]. Moreover, the LC50 in the experiment with M14 was found to be 5.91 µM; with OVCAR-3, 6.51 µM; in the experiment with MCF7 [3], 7.04 µM; with HCT-116 it was 5.02 µM; with A498, 5.13 µM.
For `CCCCOc1ccc(/C=N/Nc2cc(C)nc3ccc(Cl)cc23)cc1`, the CC50 in the experiment with SR was > 100 µM; with PC-3, 6.55 µM; in the experiment with A549 [4] it was 6.35 µM. The LC50 with M14 is 8.07 µM; in the experiment on OVCAR-3 it was 7.04 µM; with MCF7 [3] it was 6.87 µM; with HCT-116, > 100 µM; in the experiment with A498, 5.67 µM.
Consider `Nc1ccc(CC(=O)Nc2ccc3c(c2)CCCN3C(=O)c2ccc(Cl)cc2)cc1`, for which the IC50 with A549 [9] came to 0.22 µM.
For `COc1ccc2nc(Cl)cc(C3CC(c4ccc(C)cc4)=NN3c3nc(-c4ccccc4)cs3)c2c1` (stereo not drawn), the IC50 in the experiment on MCF7 [6] is 0.21 µM.
As to `CCCCOc1ccc(/C=N/Nc2cc(C)nc3ccc(Br)cc23)cc1`, the CC50 with SR is > 100 µM; in the experiment with PC-3, 6.49 µM; in the experiment with A549 [4] it was 6.61 µM. In addition, the LC50 was 5.88 µM in the experiment with M14; 7.18 µM in the experiment with OVCAR-3; 7.37 µM in the experiment on MCF7 [3]; 6.17 µM with HCT-116; 5.47 µM with A498.
Regarding `CCOc1ccc(/C=N/Nc2cc(C)nc3ccc(Cl)cc23)cc1`, the CC50 with SR was found to be 15.5 µM; with PC-3, 6.54 µM; in the experiment with A549 [4] it was 6.94 µM. Moreover, the LC50 was determined as 5.55 µM in the experiment on M14, 6.36 µM in the experiment on OVCAR-3, 6.6 µM in the experiment with MCF7 [3] and 7.01 µM with A498.
As for `CCCOc1ccc(/C=N/Nc2cc(C)nc3ccc(Cl)cc23)cc1`, the CC50 amounted to 38.6 µM with SR, 6.39 µM in the experiment with PC-3 and 6.49 µM in the experiment on A549 [4]. For the same compound, the LC50 was found to be 6.17 µM in the experiment with M14; 6.44 µM in the experiment with OVCAR-3; 6.9 µM in the experiment with MCF7 [3]; 6.48 µM in the experiment on HCT-116; 5.79 µM in the experiment with A498.
On to `COc1ccc(-c2c(C#N)c(N)nc3c2CCc2cc(OC)ccc2-3)cc1`, for which, in the experiment on MCF7 [8], the IC50 came out at 12 µM.
Compound `CCCCOc1ccc(/C=N/Nc2ccnc3ccc(Cl)cc23)cc1` showed an IC50 in experiment [2] of 1.76 µM.
As for `CCc1[nH]nc(NC(=O)Cc2ccc(Oc3ccnc4cc(OC)ccc34)cc2OC)c1C`, the IC50 in [1] came to 0.003 µM.
Take `COc1ccc(-c2c3c([nH]c(=O)c2C#N)-c2ccc(OC)cc2CC3)cc1`: the IC50 in experiment [7] was 0.13 µM; in the experiment on MCF7 [8] it was 18.1 µM.
